Experimental data published in ChEMBL document CHEMBL1201862, “PubChem BioAssay data set” (2004).
Active and inactive are the calls of the source.

How the values were obtained:
[1] = target: T1, Mannose-6-phosphate isomerase (Homo sapiens, UniProt P34949); experiment: human PMI inhibitors, high substrate, primary screen, biochemical, fluorescence intensity, high mannose 6-phosphate (AID 1220)
T1 sequence (P34949 whole entry): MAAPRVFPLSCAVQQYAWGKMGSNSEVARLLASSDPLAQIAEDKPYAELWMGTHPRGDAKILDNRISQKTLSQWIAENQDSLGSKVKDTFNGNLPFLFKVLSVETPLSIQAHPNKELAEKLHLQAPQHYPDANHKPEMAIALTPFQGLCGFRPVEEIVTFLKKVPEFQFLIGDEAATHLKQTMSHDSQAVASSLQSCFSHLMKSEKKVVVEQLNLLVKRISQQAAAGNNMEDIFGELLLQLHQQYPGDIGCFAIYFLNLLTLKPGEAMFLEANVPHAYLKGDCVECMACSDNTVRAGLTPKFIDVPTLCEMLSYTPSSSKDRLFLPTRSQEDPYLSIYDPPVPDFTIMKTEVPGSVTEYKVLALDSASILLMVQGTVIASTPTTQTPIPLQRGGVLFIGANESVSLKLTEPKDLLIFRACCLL

[2] = THP-1 cell cytotoxicity, dose response, cytotoxicity control for non-replicating M. tuberculosis project (AID 489025); assay type: functional
cells = assay type: functional
Kallikrein-7 = Kallikrein-7 (Homo sapiens, UniProt P49862); experiment: Fluorescence Intensity-based biochemical primary high throughput dose response assay to identify activators of kallikrein-7 (K7) zymogen.
Kallikrein-7, sequence (P49862 whole entry): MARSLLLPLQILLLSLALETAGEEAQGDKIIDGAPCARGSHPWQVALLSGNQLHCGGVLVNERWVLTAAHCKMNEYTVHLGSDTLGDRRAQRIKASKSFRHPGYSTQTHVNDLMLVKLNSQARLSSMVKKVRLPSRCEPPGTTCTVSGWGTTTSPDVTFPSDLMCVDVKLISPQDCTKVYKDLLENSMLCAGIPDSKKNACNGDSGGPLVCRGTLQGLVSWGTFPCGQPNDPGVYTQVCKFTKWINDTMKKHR

INS1 = experiment: beta cell apoptosis inhibitors, cytokine rescue, dose response, luminescence, retest (AID 449756); assay type: functional, cell-based; details: Rattus norvegicus;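 further: cell death triggered by IL-1 beta plus TNF-alpha plus IFN-gamma mixture; protective hits raise ATP signal compared with cytokine alone wells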
[3] = target: T2, Heat shock factor protein 1 (Mus musculus, UniProt P38532); experiment: inhibition of MG132-induced HSE-luciferase signal, confirmation, cell-based, NIH3T3, luminescence, dose retest (AID 2382); assay type: functional;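 further: NIH3T3 fibroblasts with HSF1-driven luciferase reporter stressed by proteasome inhibitor MG132; luminescence from HSF1-driven luciferase expression after 8 hours of MG132 stress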
T2 sequence (P38532 whole entry): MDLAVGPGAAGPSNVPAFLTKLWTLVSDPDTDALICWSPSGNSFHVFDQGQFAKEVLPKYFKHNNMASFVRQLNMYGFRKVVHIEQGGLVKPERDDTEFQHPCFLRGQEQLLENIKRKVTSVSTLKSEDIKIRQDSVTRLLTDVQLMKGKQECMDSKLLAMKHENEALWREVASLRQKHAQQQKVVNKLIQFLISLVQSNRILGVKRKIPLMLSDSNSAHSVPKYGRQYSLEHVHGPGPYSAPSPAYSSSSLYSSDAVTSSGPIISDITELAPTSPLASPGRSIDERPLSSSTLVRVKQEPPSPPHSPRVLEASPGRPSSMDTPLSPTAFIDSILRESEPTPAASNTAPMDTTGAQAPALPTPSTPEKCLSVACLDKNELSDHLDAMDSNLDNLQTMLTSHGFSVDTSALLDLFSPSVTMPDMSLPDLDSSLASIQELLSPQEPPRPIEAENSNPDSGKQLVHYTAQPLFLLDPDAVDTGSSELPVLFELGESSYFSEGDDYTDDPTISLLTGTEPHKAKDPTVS

[4] = target: Induced myeloid leukemia cell differentiation protein Mcl-1 (Homo sapiens, UniProt Q07820); assay type: functional
Induced myeloid leukemia cell differentiation protein Mcl-1, sequence (Q07820 whole entry): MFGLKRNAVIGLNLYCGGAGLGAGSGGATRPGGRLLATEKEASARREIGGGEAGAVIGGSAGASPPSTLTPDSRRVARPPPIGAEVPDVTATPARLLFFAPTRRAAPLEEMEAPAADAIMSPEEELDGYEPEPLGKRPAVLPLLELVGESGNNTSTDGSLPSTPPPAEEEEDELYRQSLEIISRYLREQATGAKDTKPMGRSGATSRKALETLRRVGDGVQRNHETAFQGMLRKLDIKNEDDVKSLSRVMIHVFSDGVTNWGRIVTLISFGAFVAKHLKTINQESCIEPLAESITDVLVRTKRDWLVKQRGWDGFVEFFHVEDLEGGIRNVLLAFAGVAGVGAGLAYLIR

BJ [5] = experiment: cytotoxicity toward BJ-TERT-LT-ST fibroblasts, dose response, cell-based, RAS-independent, luminescence (AID 1935); assay type: functional; details: Homo sapiens;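 further: BJ fibroblasts immortalized with TERT plus LT and ST oncogenes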
[6] = cytotoxicity toward DRD oncogenic fibroblasts, dose response, cell-based, non-viral oncogenic, luminescence (AID 1934); assay type: functional; details: Homo sapiens
Genome polyprotein = Genome polyprotein (dengue virus type 2, UniProt P29990); experiment: Dengue-2 NS5 methyltransferase inhibitors, primary screen, biochemical, confirmation dose response (AID 588689); assay type: functional
Genome polyprotein, sequence (P29990 2492-3391 limits assumed): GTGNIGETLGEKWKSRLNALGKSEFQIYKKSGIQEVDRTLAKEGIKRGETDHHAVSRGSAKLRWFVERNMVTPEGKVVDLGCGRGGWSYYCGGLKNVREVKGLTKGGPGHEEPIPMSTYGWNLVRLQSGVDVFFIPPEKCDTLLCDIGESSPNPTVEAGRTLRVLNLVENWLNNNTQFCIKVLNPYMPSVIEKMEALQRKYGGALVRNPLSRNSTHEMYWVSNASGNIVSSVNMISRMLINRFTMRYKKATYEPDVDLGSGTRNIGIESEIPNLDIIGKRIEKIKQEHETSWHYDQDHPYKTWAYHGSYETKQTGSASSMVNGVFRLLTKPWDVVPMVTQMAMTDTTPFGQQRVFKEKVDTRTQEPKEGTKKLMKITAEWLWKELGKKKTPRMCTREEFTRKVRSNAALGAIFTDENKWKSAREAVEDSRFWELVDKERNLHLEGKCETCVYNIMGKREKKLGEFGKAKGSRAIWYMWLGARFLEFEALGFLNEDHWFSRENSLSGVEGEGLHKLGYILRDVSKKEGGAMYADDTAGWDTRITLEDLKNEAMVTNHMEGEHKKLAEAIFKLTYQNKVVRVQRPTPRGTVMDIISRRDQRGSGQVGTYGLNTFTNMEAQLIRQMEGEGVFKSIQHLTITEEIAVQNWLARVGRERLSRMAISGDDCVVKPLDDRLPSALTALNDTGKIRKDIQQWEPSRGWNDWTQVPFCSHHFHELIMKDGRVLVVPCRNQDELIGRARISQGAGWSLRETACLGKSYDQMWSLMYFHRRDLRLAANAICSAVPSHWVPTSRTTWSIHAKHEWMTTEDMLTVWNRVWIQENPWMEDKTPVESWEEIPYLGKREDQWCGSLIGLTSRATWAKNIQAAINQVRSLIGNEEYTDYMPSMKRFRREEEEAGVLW

BJ [7] = experiment: cells; assay type: functional, cell-based; details: Homo sapiens
BJ [8] = experiment: cytotoxicity toward BJ-TERT fibroblasts, dose response, cell-based, RAS-independent, luminescence (AID 1933); assay type: functional; details: Homo sapiens
[9] = MC4R antagonists, dose response, counter-screen for LGR2 antagonist project, cell-based, plate reader, cherry pick (AID 743444); assay type: functional;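 further: transfected HEK 293 cells stimulated with alpha-MSH peptide; potency of inhibitors of the alpha-MSH evoked signal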
[10] = target: T3, Sentrin-specific protease 6 (Homo sapiens, UniProt Q9GZR1); assay type: functional;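 further: Luminescence-based dose-response confirmatory assay of SENP6 inhibition, following up an ultra-high-throughput screen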
T3 sequence (Q9GZR1 whole entry): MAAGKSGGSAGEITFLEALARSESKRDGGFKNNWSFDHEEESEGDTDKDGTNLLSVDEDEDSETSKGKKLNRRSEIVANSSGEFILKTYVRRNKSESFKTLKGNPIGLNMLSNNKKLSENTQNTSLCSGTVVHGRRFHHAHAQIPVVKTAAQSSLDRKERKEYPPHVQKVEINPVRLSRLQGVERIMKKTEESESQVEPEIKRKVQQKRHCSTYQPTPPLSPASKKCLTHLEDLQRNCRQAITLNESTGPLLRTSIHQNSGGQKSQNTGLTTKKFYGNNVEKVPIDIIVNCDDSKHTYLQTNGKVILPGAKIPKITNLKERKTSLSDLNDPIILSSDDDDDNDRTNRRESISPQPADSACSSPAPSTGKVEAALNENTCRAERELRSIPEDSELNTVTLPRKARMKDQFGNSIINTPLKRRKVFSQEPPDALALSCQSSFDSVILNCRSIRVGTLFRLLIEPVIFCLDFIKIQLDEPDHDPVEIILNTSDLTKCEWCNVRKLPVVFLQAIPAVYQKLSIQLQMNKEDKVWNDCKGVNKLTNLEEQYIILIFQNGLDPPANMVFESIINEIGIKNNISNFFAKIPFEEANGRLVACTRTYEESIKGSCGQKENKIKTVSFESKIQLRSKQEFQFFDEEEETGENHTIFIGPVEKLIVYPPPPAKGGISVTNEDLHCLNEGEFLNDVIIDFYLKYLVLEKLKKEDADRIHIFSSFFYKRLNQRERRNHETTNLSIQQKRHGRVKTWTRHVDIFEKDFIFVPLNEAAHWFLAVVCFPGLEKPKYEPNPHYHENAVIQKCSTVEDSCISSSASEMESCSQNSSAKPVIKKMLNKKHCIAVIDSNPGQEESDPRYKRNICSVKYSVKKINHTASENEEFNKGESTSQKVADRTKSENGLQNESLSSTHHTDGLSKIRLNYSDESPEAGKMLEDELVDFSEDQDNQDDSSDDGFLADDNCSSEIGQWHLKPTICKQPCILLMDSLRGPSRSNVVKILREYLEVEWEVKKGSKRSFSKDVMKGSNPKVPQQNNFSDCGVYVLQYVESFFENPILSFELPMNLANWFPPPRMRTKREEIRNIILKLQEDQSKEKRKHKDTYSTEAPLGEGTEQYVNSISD

[11] = target: T4, Sentrin-specific protease 8 (Homo sapiens, UniProt Q96LD8); assay type: functional;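 further: luminescence read-out of SENP8 inhibition, dose-response confirmation following an ultra-high-throughput screen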
T4 sequence (Q96LD8 whole entry): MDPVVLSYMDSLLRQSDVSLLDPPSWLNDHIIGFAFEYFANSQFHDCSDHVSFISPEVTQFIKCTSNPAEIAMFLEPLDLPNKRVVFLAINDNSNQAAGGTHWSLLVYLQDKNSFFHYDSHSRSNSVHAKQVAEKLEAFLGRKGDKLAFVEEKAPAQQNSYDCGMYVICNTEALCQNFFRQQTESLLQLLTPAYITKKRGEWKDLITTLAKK

[12] = target: T5, Sentrin-specific protease 7 (Homo sapiens, UniProt Q9BQF6); assay type: functional;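 further: Luminescence-based dose-response confirmation of ultra-high-throughput screening hits, measuring inhibition of SENP7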
T5 sequence (Q9BQF6 whole entry): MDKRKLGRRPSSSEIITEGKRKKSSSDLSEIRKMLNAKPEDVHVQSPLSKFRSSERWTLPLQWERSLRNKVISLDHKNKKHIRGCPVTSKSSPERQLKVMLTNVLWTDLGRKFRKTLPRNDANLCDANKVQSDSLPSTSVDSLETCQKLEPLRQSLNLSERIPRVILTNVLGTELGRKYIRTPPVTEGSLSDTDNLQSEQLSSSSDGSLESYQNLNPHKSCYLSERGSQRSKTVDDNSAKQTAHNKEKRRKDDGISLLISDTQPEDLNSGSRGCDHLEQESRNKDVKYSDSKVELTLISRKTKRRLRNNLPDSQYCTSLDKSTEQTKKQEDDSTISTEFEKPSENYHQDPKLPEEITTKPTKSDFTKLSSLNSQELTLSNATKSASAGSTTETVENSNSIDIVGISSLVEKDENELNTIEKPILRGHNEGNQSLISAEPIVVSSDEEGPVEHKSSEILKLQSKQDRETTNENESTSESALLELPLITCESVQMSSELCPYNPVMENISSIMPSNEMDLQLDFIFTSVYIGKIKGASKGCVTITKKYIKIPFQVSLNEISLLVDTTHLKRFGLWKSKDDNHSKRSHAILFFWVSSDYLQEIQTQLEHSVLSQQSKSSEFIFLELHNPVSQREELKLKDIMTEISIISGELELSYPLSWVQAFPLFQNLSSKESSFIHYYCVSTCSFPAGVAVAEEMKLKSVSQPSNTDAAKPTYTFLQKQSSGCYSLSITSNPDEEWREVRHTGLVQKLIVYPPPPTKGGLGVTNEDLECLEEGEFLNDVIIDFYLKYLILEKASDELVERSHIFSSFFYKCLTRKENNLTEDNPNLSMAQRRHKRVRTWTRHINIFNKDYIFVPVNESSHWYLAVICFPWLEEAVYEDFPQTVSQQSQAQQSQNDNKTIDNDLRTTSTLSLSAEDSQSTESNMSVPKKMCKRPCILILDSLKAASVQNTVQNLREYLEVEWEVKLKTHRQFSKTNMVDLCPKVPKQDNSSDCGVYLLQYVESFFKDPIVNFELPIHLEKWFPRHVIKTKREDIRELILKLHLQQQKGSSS

[13] = LGR2 antagonists, dose response, cell-based, HEK293, CRE-luciferase reporter, cherry pick, set 2 (AID 743343); assay type: functional;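 further: transfected cells were stimulated with diluted bursicon conditioned medium after compound addition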
Caspase-3 = target: T6, Caspase-3 (Homo sapiens, UniProt P42574); assay type: functional;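 further: Dose-response selectivity test against caspase-3 for candidate inhibitors of sentrin-specific proteases (SENPs)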
T6 sequence (P42574 whole entry): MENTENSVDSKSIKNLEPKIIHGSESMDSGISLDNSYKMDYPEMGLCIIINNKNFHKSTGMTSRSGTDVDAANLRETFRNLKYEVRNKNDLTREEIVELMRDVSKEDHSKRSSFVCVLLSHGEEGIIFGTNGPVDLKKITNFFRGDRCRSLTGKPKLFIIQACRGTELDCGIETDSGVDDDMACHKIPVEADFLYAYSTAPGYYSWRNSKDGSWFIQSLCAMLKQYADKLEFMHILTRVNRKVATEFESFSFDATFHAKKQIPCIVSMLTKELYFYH

[14] = HepG2 cell cytotoxicity, dose response, cytotoxicity control, plate reader, cherry-pick, antagonist series (AID 743416); assay type: functional, cell-based
[15] = A549 cell cytotoxicity, dose response, cytotoxicity control, plate reader, cherry-pick, antagonist series (AID 743412); assay type: functional, cell-based
[16] = Luminescence Cell-Based Dose Confirmation HTS to Identify Inhibitors of Platelet Dense Granule Release. [Related pubchem assays: 1663 (Primary HTS), 1678 (Summary of Project)]; assay type: functional
[17] = target: Luciferin 4-monooxygenase (Photinus pyralis, UniProt P08659); experiment: firefly luciferase enzyme inhibitors, dose response, biochemical, luminescence (AID 1891)
Luciferin 4-monooxygenase, sequence (P08659 whole entry): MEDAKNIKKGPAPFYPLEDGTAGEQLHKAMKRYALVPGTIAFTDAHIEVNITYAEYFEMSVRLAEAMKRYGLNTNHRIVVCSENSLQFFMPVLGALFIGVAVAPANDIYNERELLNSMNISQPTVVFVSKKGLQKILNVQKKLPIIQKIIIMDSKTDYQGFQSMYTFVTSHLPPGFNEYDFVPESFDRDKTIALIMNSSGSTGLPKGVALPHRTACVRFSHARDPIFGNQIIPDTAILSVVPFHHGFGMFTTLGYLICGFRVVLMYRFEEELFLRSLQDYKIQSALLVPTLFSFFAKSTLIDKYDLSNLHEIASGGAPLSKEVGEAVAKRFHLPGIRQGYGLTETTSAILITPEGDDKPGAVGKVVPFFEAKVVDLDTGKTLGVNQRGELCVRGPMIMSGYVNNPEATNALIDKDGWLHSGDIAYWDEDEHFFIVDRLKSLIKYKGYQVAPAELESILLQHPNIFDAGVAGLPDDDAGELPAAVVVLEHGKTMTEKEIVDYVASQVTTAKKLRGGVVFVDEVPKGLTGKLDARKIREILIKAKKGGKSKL

[18] = inhibitors of intracellular T. cruzi replication, confirmation, NIH3T3 host cells, beta-gal luminescence (AID 2044); assay type: functional, cell-based;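 further: intracellular parasites grown in NIH/3T3 mouse fibroblasts as host cells; luminescent beta-galactosidase reporter signal from transgenic T. cruzi replicating inside host cells; inhibitors lower the luminescence signal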
[19] = cytotoxicity toward NIH3T3 fibroblasts, dose response, counter-screen, cell-based, ATP luminescence, mouse fibroblasts (AID 2010); assay type: functional;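 further: cells exposed to compound for about 90 hours before reading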

CCc1cc(N2CCOCC2)cc2c1[nH]c1ccccc12
IC50 [1]: > 50 µM (not active)

COC(=O)COc1cccc(NC(=O)COc2ccccc2)c1
CC50 [2]: > 40 µM (active) | IC50 (cells): 1.65 µM (active)

O=C(Nc1ccc2c(c1)C(=O)NC2=O)c1ccc(S(=O)(=O)N2CCCC2)cc1
EC50 (Kallikrein-7): 8.55 µM (active)

O=C(c1ccc([N+](=O)[O-])s1)N1CCN(c2cccc(Cl)c2)CC1
CC50 [2]: 35.6 µM (active) | AC50 (INS1): 7.83 µM (active) | EC50 [3]: > 195 µM (not active) | IC50 (cells): 1.11 µM (active)

COCCN(CCOC)c1cc(C)c(C#N)c2nc3ccccc3n12
EC50 (Kallikrein-7): 11.2 µM (inactive)

CCc1cccc(OCCCn2ccnc2)c1
CC50 [2]: > 40 µM (active)

Cc1cccc(-n2c(SCC(=O)N3CCCC3)nc3nnc(C)c-3c2N)c1
EC50 (Kallikrein-7): 13.3 µM (inactive)

O=C(NC1CCCCCC1)c1cc2c(=O)n3ccccc3nc2s1
EC50 (Kallikrein-7): > 69.5 µM (inactive)

O=C(Nc1ccc2nc3ccccc3nc2c1)c1ccccc1
EC50 (Kallikrein-7): > 69.5 µM (inactive) | IC50 [4]: > 54 µM (active)

CN1C(=O)NC(=O)/C(=C/c2ccc([N+](=O)[O-])s2)C1=O
CC50 [2]: 33.8 µM (active) | EC50 (BJ [5]): > 150 µM (not active) | EC50 [6]: > 150 µM (not active) | IC50 (Genome polyprotein): 17.4 µM (active) | IC50 (cells): 23.2 µM (active) | EC50 (BJ [7]): > 150 µM (not active) | EC50 (BJ [8]): 11.2 µM (active)

COCCn1c(C)cc(C(=O)CSc2nc3ccccc3s2)c1C
AC50 [9]: 6.46 µM (active) | IC50 [10]: 27.4 µM (active) | IC50 [11]: 83.7 µM (active) | IC50 [12]: 8.92 µM (active) | AC50 [13]: 3.81 µM (active) | IC50 (Caspase-3): 26.4 µM (active) | AC50 [14]: 41.8 µM (active)

COC(=O)C1=CNC=C(C(=O)OC)C1c1ccc(C(=O)OC)cc1
EC50 (Kallikrein-7): > 69.5 µM (inactive)

CC(=O)c1ccc(Nc2nc(-c3sc(C)nc3C)cs2)cc1
AC50 [9]: 34 µM (active) | AC50 [15]: 2.08 µM (active) | AC50 [13]: 21.8 µM (active) | AC50 [14]: 2.87 µM (active)

CCCCN1C(=O)/C(=N\c2cccc3cnccc23)c2ccccc21
EC50 [16]: > 112 µM (not active) | EC50 [17]: > 112 µM (not active) | IC50 [1]: > 50 µM (not active)

CCC/C(=N\NC(=O)c1ccco1)c1ccc(Cl)s1
CC50 [2]: > 40 µM (active) | IC50 (cells): 13.9 µM (active)

O=C(O)c1ccc(/C=N/NC(=O)c2cc(-c3cccs3)nc3ccccc23)cc1
EC50 (Kallikrein-7): 49.6 µM (inactive)

CC(C)(C)C1=CC(=O)C(=O)C(C(C)(C)C)=C1
EC50 [18]: 0.62 µM (active) | EC50 [19]: 7.34 µM (active) | IC50 [1]: 9.84 µM (active)

O=C(Nc1nc2ccccc2[nH]1)c1ccc(Cl)cc1
AC50 [9]: 6.33 µM (active) | AC50 [15]: 29.1 µM (active) | AC50 [13]: 10.1 µM (active) | AC50 [14]: 29.5 µM (active)
